As a reminder, the IC50 is the concentration at which inhibition is half-maximal. Read a low IC50 as higher potency.

Test [1] has as its system DCAF16 KO SU-DHL-4 cells. The experiment in a line: Inhibitory effect on cell viability using SU-DHL-4 DCAF16 knock out (KO) cell line (Test Example 6). The format is cell-based, human. As for the experimental part:
The human DLBCL cell line SU-DHL-4 was purchased from DSMZ. SU-DHL-4 was passaged using RPMI1640 medium containing 10 vol % FBS. After the Cas9 gene was introduced, the cells were cultured in the above medium containing 0.01 mg/mL blasticidin (InvivoGen, Cat No. ant-bl-1). After introduction of sgRNA, the cells were cultured in the above medium containing 0.0001 mg/mL puromycin dihydrochloride (SIGMA, Cat No. P9020-10 ML). The culture conditions were 37° C. and 5% CO2.
Edit-R Lentiviral hEF1α-Blast-Cas9 Nuclease Particles (Cat No. VCAS10126) was used as a lentivirus for expressing Cas9 in human cell lines. Three types of Edit-R Human DCAF16 Lentiviral sgRNA (Cat No. VSGH10142-246568260; DNA target sequence […] (SEQ ID NO: 1), Cat No. VSGH10142-246568262; DNA target sequence […] (SEQ ID NO: 2) and Cat No. VSGH10142-246568263; DNA target sequence […] (SEQ ID NO: 3)) were used as lentiviruses for introducing DCAF16 sgRNA. As a control, Edit-R Lentiviral sgRNA Non-targeting Control #1 (Cat No. VSGC10215) was used. All lentiviruses were purchased from Dharmacon and stored at −80° C. until use.
SU-DHL-4 was suspended at 4×10^5 cells/mL in RPMI 1640 without FBS, 0.25 mL of the suspension was added to a 24-well plate, and the cells were cultured overnight. The next day, 0.003 mL of virus particles of Edit-R Lentiviral hEF1α-Blast-Cas9 Nuclease Particles was added. After culturing in a CO2 incubator for 4 hours, RPMI 1640 containing 0.75 mL of 10 vol % FBS was added. After culturing in a CO2 incubator for about 48 hours, the medium was replaced with RPMI1640 containing 10 vol % FBS, and the cells were cultured in a CO2 incubator. Four days after infection, the medium was replaced with a medium containing 0.01 mg/mL blasticidin (InvivoGen, Cat No. ant-bl-1). Then, the cells were passaged once every 2 to 3 days and thus twice in total (that is, cultured for 1 week) to obtain SU-DHL-4/Cas9, which is a Cas9-introduced SU-DHL-4 cell line.
(6) sgRNA infection SU-DHL-4/Cas9 was suspended at 4×10^5 cells/mL in RPMI 1640 without FBS, 0.25 mL of the suspension was added to a 24-well plate, and the cells were cultured overnight. The next day, a total of 4 types of sgRNA virus particles, 1 type of Control and 3 types targeting DCAF16 were added to the respective wells by 0.03 mL. After culturing in a CO2 incubator for 5 hours, RPMI 1640 containing 0.75 mL of 10 vol % FBS was added.
After culturing in a CO2 incubator for about 48 hours, the medium was replaced with RPMI1640 containing 10 vol % FBS, and the cells were cultured in a CO2 incubator. Four days after infection, the medium was replaced with a medium supplemented with 0.01 mg/mL puromycin dihydrochloride (SIGMA, Cat No. P9020-10 ML). Then, the cells were passaged once or twice a week for 2 weeks, and a cell stock was prepared using CELLBANKER I plus (Takara Bio, Cat No. CB-021). Cell line stock was stored at −80° C. Using Edit-R Lentiviral sgRNA Non-targeting Control #1, the Negative Control sequence was introduced into the SU-DHL-4 cell line, which was referred to as SU-DHL-4 NC strain, and using Edit-R Human DCAF16 Lentiviral sgRNA, […] sequence (SEQ ID NO: 1) was introduced into the SU-DHL-4 cell line, which was referred to as SU-DHL-4 DCAF16 KO1 strain, […] sequence (SEQ ID NO: 2) was introduced into the SU-DHL-4 cell line, which was referred to as SU-DHL-4 DCAF16 KO2 strain, and […] sequence (SEQ ID NO: 3) was introduced into the SU-DHL-4 cell line, which was referred to as SU-DHL-4 DCAF16 KO 3 strain.
The cultured DCAF16 KO SU-DHL-4 cells were seeded at 2000 cells/well in a transparent 384-well plate (Code No. 781182, Greiner bio-one). After seeding, the cells were pre-cultured at 37° C. in a carbon dioxide gas incubator for 18 to 25 hours. […]

The test system of test [2] is MYC mRNA expression in SU-DHL-4 cells. Description: Suppressive effect on MYC mRNA expression (Test Example 2). In kind it is cell-based, human. Conditions: Homo sapiens, test compound 100 nmol/L, 6 hours, qRT-PCR corrected by ACTB, GAPDH, HPRT1, read-out: Suppression Rate of MYC mRNA Expression (%). The protocol:
The cells were passaged twice a week at a volume of 20-40 mL so as to maintain a cell concentration of 1×10^6 cells/mL or less. The cultured SU-DHL-4 cells were seeded at 6×10^5 cells/well in a transparent 6-well plate (Code No. 140675, Thermo Fisher Scientific). After seeding, the cells were precultured at 37° C. in a carbon dioxide gas incubator for 18 to 25 hours. […] At this time, the final concentration of DMSO was adjusted to be 0.1 vol %. After adding the test compound, the cells were cultured at 37° C. in a carbon dioxide gas incubator for 6 hours. Then, the cells were collected by centrifugation and used for extraction of mRNA. mRNA extraction from cells was performed using Maxwell® 16 LEV simplyRNA Purification Kits (Code No. AS1270, Promega). The mRNA recovery protocol was performed according to the manufacturer's recommended protocol attached to the kit. […] The cDNA conversion was performed, according to the manufacturer's recommended protocol attached to the kit, in 0.020 mL of the reaction solution, and GeneAmp® PCR System 9700 (Applied Biosystems) was used. The cDNA-converted sample was diluted 10-fold by adding 0.180 mL of RNase Free Water (Code No. 10977-023, Thermo Fisher Scientific) and used for quantitative real-time polymerase chain reaction (qRT-PCR). For the calibration curve of qRT-PCR, 0.08 mL of RNase Free Water was added to a cDNA sample using DMSO as a test compound for 5-fold dilution. Further, two 5-fold dilutions were prepared stepwise, and these three samples were used as the calibration curve samples. The following reagents were used for qRT-PCR: TaqMan Gene Expression Assays, Inventoried (Primer probe: Code No. 4331182, Thermo Fisher Scientific, Assay ID: (i) MYC: Hs00153408_m1, (ii) ACTB: Hs01060665_g1, (iii) GAPDH: Hs04420697_g1, (iv) HPRT1: […] Universal PCR Master Mix, no AmpEraseR UNG (Master Mix: Code No. 4367846, Thermo Fisher Scientific). Primer probe (0.001 mL), Master Mix (0.010 mL), water (0.004 mL) and the diluted cDNA sample (0.005 mL) were mixed, and qRT-PCR analysis was performed. For qRT-PCR analysis, QuantStudio 7 Flex (Thermo Fisher Scientific) or 7500 Fast Real-Time PCR (Applied Biosystems) was used to measure in Fast mode and analyze. […] Corrected MYC expression=A/B • A: MYC expression level • B: Geometric mean of expression levels of ACTB, GAPDH and HPRT1 Using the corrected values, the suppression rate of MYC expression for the wells to which the test compound was not added was calculated by the following formula. […] Corrected MYC expression level in a well containing test compound • D: Corrected MYC expression level in a well to which test compound was not added

Test [3] deals with T1, BRD3 (Homo sapiens, UniProt Q15059).
T1 construct: Changes in the amount of BRD4, BRD2 and BRD3 proteins in the SU-DHL-4 cell line; endogenous in cells; host or cells: SU-DHL-4
Description: Evaluation of BET proteolysis in SU-DHL-4 cell line by Western blotting: BRD3 (Test Example 4). Conditions: SU-DHL-4 cells, test compound 100 nmol/L, 24 hours. The format is cell-based. The protocol:
(§1) The human DLBCL cell line SU-DHL-4 was purchased from DSMZ. SU-DHL-4 was passaged using RPMI1640 medium containing 10 vol % FBS. The culture conditions were 37° C. and 5% CO2.
Anti-BRD3 antibody: Anti-BRD3 antibody (2088C3a) (Santa Cruz Biotechnology, Cat No. sc-81202)
(§2) Changes in the amount of BRD4, BRD2 and BRD3 proteins in the SU-DHL-4 cell line by the test compound (compound 1b, compound 1l or compound P3) were detected by WB. The compound P3 is a compound described as example 14 in the known Patent Document 2 (WO 2015/081284), which was synthesized according to the method described in Patent Document 2 and used in this test.
(§3) The cultured SU-DHL-4 cells were seeded at 6×10^5 cells/well in a transparent 6-well plate (Code No. 140675, Thermo Fisher Scientific). After seeding, the cells were pre-cultured at 37° C. in a carbon dioxide gas incubator for 18 to 25 hours. Next, a 0.1 mmol/L DMSO solution of the test compound was prepared, diluted so that the concentration was 200-fold of the final concentration in RPMI1640 medium containing the above FBS and PS, and 1/200 volume of the diluted solution was added to each well. At this time, the final concentration of DMSO was adjusted to be 0.1 vol %. After adding the test compound, the cells were cultured at 37° C. in a carbon dioxide gas incubator for 24 hours.
(§4) After collecting the cells, the supernatant was aspirated, and Lysis buffer 6 (R&D systems, Cat No. 895561) was added to the pellet at 0.1 mL/sample. After incubating on ice for 60 minutes, the supernatant was collected by centrifugation at 15000 rpm for 10 minutes at 4° C.
(§5) Using Pierce BCA Protein Assay Kit (Thermo Fisher, Cat No. 23225), the protein concentration of each sample was quantified according to the manual attached to the kit, and then was diluted and prepared with Lane Marker Reducing Sample Buffer (5×) (Thermo Fisher, Cat No. 39000) and Lysis buffer 6 to 1 mg/mL. The cells were incubated at 95° C. for 5 minutes to prepare WB samples. WB samples were stored at −30° C. until electrophoresis.
(§6) The WB sample was thawed and used after vortex mixing and spin down. […]
A general note: A western blot detects proteins with antibodies after separation by electrophoresis.

Test [4] deals with T2, BRD2 (Homo sapiens, UniProt P25440).
T2 construct: Changes in the amount of BRD4, BRD2 and BRD3 proteins in the SU-DHL-4 cell line; endogenous in cells; host or cells: SU-DHL-4
Description: Evaluation of BET proteolysis in SU-DHL-4 cell line by Western blotting: BRD2 (Test Example 4). The format is cell-based. Particulars: SU-DHL-4 cells, test compound 100 nmol/L, 24 hours. As for the experimental part: as §1
Anti-BRD2 antibody: Brd2 (D8964) Rabbit mAb (Cell Signaling Technology, Cat No. #5848S)
as §2, §3, §4, §5, §6

In test [5] the target is T3, BRD4 (Homo sapiens, UniProt O60885).
T3 construct: Changes in the amount of BRD4, BRD2 and BRD3 proteins in the SU-DHL-4 cell line; endogenous in cells; host or cells: SU-DHL-4
Description: Evaluation of BET proteolysis in SU-DHL-4 cell line by Western blotting: BRD4 (Test Example 4). In kind it is cell-based. Particulars: SU-DHL-4 cells, test compound 100 nmol/L, 24 hours. The protocol: as §1
Anti-BRD4 antibody: BRD4 (E2A7X) Rabbit mAb (Cell Signaling Technology, Cat No. #13440S)
as §2, §3, §4, §5, §6

T1 sequence (Q15059 whole entry): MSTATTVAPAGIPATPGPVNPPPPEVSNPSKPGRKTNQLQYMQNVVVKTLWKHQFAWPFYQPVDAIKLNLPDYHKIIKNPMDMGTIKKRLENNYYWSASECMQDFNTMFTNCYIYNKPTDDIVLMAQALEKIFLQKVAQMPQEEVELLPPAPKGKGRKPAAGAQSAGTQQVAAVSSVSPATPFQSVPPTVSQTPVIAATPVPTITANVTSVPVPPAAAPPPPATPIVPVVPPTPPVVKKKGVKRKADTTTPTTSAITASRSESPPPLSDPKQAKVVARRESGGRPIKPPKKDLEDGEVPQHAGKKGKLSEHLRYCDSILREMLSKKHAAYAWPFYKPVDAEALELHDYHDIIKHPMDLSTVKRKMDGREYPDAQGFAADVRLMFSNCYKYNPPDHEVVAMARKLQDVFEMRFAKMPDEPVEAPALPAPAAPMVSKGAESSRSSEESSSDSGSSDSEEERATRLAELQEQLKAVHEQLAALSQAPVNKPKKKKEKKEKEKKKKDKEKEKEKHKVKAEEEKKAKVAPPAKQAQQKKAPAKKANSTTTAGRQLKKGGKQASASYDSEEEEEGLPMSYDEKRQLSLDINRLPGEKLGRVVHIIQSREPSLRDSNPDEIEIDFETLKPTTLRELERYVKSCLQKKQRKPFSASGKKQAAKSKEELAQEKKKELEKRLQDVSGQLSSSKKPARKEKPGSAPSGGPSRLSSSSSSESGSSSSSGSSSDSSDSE
T2 sequence (P25440 whole entry): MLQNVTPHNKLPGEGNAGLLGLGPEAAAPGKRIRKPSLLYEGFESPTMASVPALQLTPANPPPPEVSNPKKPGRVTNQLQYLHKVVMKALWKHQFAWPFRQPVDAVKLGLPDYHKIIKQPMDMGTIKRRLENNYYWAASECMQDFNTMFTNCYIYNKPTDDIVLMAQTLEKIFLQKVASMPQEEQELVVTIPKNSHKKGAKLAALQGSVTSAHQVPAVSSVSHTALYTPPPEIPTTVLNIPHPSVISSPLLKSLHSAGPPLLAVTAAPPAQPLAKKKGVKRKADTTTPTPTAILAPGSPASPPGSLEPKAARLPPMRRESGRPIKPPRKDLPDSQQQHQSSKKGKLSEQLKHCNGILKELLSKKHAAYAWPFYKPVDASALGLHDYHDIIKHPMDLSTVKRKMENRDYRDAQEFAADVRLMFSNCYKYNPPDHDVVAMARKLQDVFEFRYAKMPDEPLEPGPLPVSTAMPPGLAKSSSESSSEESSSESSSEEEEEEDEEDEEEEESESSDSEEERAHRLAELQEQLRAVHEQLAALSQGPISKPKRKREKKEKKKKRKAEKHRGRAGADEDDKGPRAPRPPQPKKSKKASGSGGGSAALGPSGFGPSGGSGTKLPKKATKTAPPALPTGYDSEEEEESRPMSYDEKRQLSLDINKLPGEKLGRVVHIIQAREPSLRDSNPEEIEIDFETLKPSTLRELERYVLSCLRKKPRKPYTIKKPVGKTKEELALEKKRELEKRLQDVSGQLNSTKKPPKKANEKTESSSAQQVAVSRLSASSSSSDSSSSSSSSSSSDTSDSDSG

In the case of `CCC(=O)N1c2ccccc2[C@H](Nc2ccc(NC(=O)CCCC(=O)Nc3ccc(N[C@@H]4C[C@H](C)N(C(=O)CC)c5ccccc54)cc3)cc2)C[C@@H]1C` (relative stereo) [Compound 4a, N^1,N^5-bis(4-{[(2S*,4R*)-2-Methyl-1-propionyl-1,2,3,4-tetrahydroquinolin-4-yl]amino}phenyl)glutaramide], in test [1] ((SU-DHL-4 DCAF16 KO IC50)/(SU-DHL-4 WT IC50)), the “Activity Attenuation Ratio” value is reported as 361. This compound also registered an IC50 in test [1] (Homo sapiens, DCAF16 KO SU-DHL-4 cells, 72 hours, Cell Counting Kit-8, 50% inhibition of cell viability) of 75.8 nM. Moreover, the inhibition at 0.1 µM in test [2] turned out to be 98.4%.

Turning to `CCNC(=O)C[C@@H]1N=C(c2ccc(SCCCCSc3ccc(C4=N[C@@H](CC(=O)NCC)c5nnc(C)n5-c5ccc(OC)cc54)cc3)cc2)c2cc(OC)ccc2-n2c(C)nnc21` [Compound P3, 2,2′-((4S,4'S)-6,6′-((butane-1,4-diylbis(sulfanediyl))bis(4,1-phenylene))bis(8-methoxy-1-methyl-4H-benzo[f][1,2,4]triazolo[4,3-a][1,4]diazepine-6,4-diyl))bis(N-ethylacetamide), reference compound], the “change in amount of BRD3 protein (band in Western blotting, FIG. 1)” value in test [3] is listed as “the band was not faint compared with that of control”. Besides, in test [4], the “change in amount of BRD2 protein (band in Western blotting, FIG. 1)” value is “the band was not faint compared with that of control”. For the same compound, in test [5], the “change in amount of BRD4 protein (band in Western blotting, FIG. 1)” value was “the band was not faint compared with that of control”.
